From patent publication US20240381870A1 (priority 2024, published 2024)

Assays:
wheat scab = format: in vivo; conditions: in words; field experiments of both sites (Tables 3 and 4)
Fusarium graminearum = format: cell-based; conditions: mycelial growth inhibition, PDA, 25° C.
[1] = tested on: Fusarium pseudogramineaqum; format: cell-based

SMILES	control effect on wheat scab (wheat scab)	EC50 ppm (Fusarium graminearum)	EC50 ppm [1]
O=C(NC1CCC1c1ccc(Cl)cc1Cl)c1cccnc1C(F)(F)F (stereo not drawn) [Cyclobutrifluram(C), Cyclobutrifluram]	significant control effect	0.3744 ppm	0.1276 ppm
CCCN(CCOc1c(Cl)cc(Cl)cc1Cl)C(=O)n1ccnc1 [Prochloraz(P), Prochloraz]	significant control effect	0.2663 ppm	0.2311 ppm
